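Cells were grown in 96-well plates and exposed to each compound for 48 hours at five concentrations; endpoints were interpolated linearly between bracketing concentrations, or set to the highest concentration if not reached. GI50 = concentration required for 50% inhibition of growth. TGI is the concentration that stops growth completely.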
Tests used:
Assay in all cases: growth of human tumour cells (NCI), 48 h
[1] = system: T-47D breast
[2] = system: HOP-62 NSCLC
[3] = system: NCI-H460 lung
[4] = system: MCF7 breast
[5] = system: OVCAR-8 ovarian
[6] = system: SK-MEL-2 melanoma
[7] = system: HCT-116 colon
[8] = system: HCT-15 colon
[9] = system: HS 578T breast
[10] = system: MDA-MB-435
[11] = system: UO-31 renal
[12] = system: SR leukemia
[13] = system: EKVX NSCLC
[14] = system: RPMI-8226 leukemia
[15] = system: SF-539 CNS
[16] = system: SF-295 CNS
[17] = system: ACHN renal
[18] = system: HOP-92 NSCLC
[19] = system: SK-MEL-5 melanoma
[20] = system: A549 NSCLC
[21] = system: SN12C renal
[22] = system: MDA-MB-231 breast
[23] = system: NCI-H23 lung
[24] = system: PC-3 prostate
[25] = system: BT-549 breast
[26] = system: A498 renal
[27] = system: OVCAR-4 ovarian
[28] = system: SK-OV-3 ovarian
[29] = system: SW-620 colon
[30] = system: MOLT-4 leukemia
[31] = system: SK-MEL-28 melanoma
[32] = system: RXF 393 renal
[33] = system: SF-268 CNS
[34] = system: NCI/ADR-RES ovarian
[35] = system: CCRF-CEM leukemia
[36] = system: LOX IMVI melanoma
[37] = system: DU-145 prostate
[38] = system: OVCAR-3 ovarian
[39] = system: SNB-19 CNS
[40] = system: U251 CNS
[41] = system: HT29 colon
[42] = system: OVCAR-5 ovarian
[43] = system: COLO 205 colon
[44] = system: NCI-H226 lung
[45] = system: MALME-3M melanoma
[46] = system: HL-60(TB) leukemia
[47] = system: TK-10 renal
[48] = system: KM12 colon
[49] = system: 786-0 renal
[50] = system: M14 melanoma
[51] = system: SNB-75 CNS
[52] = system: NCI-H522 lung
[53] = system: HCC-2998 colon
[54] = system: UACC-62 melanoma
[55] = system: UACC-257 melanoma
[56] = system: K-562 leukemia
[57] = system: CAKI-1 renal
[58] = system: IGROV1 ovarian

Work on `c1ccc2[nH]c(-c3ccc(Nc4nc(N5CCCCC5)nc(N5CCOCC5)n4)cc3)nc2c1` yielded a GI50 [1] of 1.96 µM, a TGI [1] of 4.58 µM and a GI50 [2] of 1.92 µM. The TGI [2] was 4.32 µM, the GI50 [3] was 2.44 µM and the TGI [3] was 6.18 µM. For the same compound, the GI50 [4] was 2.4 µM, the TGI [4] was 7.9 µM and the GI50 [5] was 3.24 µM. The TGI [5] was 14.3 µM, the GI50 [6] was 2.34 µM and the TGI [6] was 5.36 µM. For the same compound, the GI50 [7] was 1.91 µM, the TGI [7] was 3.87 µM and the GI50 [8] was 1.88 µM. The TGI [8] was 4.38 µM, the GI50 [9] was 2.56 µM and the TGI [9] was 8.61 µM. It also gave a GI50 [10] of 2.06 µM, a TGI [10] of 4.59 µM and a GI50 [11] of 2 µM. It also gave a TGI [11] of 5.14 µM, a GI50 [12] of 0.73 µM and a TGI [12] of 5.73 µM. For the same compound, the GI50 [13] was 2.68 µM, the TGI [13] was > 100 µM and the GI50 [14] was 2.23 µM. It also gave a TGI [14] of 6.58 µM, a GI50 [15] of 2.14 µM and a TGI [15] of 5.75 µM. It also gave a GI50 [16] of 1.85 µM, a TGI [16] of 4.6 µM and a GI50 [17] of 3.14 µM. The TGI [17] was > 100 µM, the GI50 [18] was 1.99 µM and the TGI [18] was 4.32 µM. The GI50 [19] was 1.78 µM, the TGI [19] was 3.3 µM and the GI50 [20] was 3.27 µM. For the same compound, the TGI [20] was 13.2 µM, the GI50 [21] was 5.4 µM and the TGI [21] was 53.2 µM. For the same compound, the GI50 [22] was 2.5 µM, the TGI [22] was 7.52 µM and the GI50 [23] was 3.05 µM. The TGI [23] was 15.7 µM, the GI50 [24] was 3.05 µM and the TGI [24] was 9.13 µM. It also gave a GI50 [25] of 2.07 µM, a TGI [25] of 5.2 µM and a GI50 [26] of 1.77 µM. For the same compound, the TGI [26] was 4.18 µM, the GI50 [27] was 3.98 µM and the TGI [27] was 25.4 µM. It also gave a GI50 [28] of 2.37 µM, a TGI [28] of 5.43 µM and a GI50 [29] of 2.34 µM. It also gave a TGI [29] of 5.87 µM, a GI50 [30] of 2.73 µM and a TGI [30] of 7.89 µM. The GI50 [31] was 1.8 µM, the TGI [31] was 4.02 µM and the GI50 [32] was 0.808 µM. The TGI [32] was 3.28 µM, the GI50 [33] was 3.21 µM and the TGI [33] was 20.1 µM. The GI50 [34] was 4.69 µM, the TGI [34] was 55.2 µM and the GI50 [35] was 3.25 µM. For the same compound, the TGI [35] was > 100 µM, the GI50 [36] was 1.75 µM and the TGI [36] was 3.58 µM. The GI50 [37] was 4.28 µM, the TGI [37] was > 100 µM and the GI50 [38] was 2.4 µM. The TGI [38] was 6.19 µM, the GI50 [39] was 3.73 µM and the TGI [39] was 81.9 µM. It also gave a GI50 [40] of 2.18 µM, a TGI [40] of 10 µM and a GI50 [41] of 2.44 µM. It also gave a TGI [41] of 5.56 µM, a GI50 [42] of 4.06 µM and a TGI [42] of 29.3 µM. It also gave a GI50 [43] of 1.86 µM, a TGI [43] of 3.92 µM and a GI50 [44] of 3.2 µM. It also gave a TGI [44] of 17.7 µM, a GI50 [45] of 1.87 µM and a TGI [45] of 3.57 µM. The GI50 [46] was 2.42 µM, the TGI [46] was 5.8 µM and the GI50 [47] was 3.21 µM. For the same compound, the TGI [47] was 9.26 µM, the GI50 [48] was 2.85 µM and the TGI [48] was 9.54 µM. For the same compound, the GI50 [49] was 1.54 µM, the TGI [49] was 3.21 µM and the GI50 [50] was 2.05 µM. It also gave a TGI [50] of 4.72 µM, a GI50 [51] of 2.1 µM and a TGI [51] of 16.9 µM. For the same compound, the GI50 [52] was 2.36 µM, the TGI [52] was 6.22 µM and the GI50 [53] was 3.74 µM. For the same compound, the TGI [53] was > 100 µM.

In the case of `C(=N\Nc1nnn(Cc2ccccc2)n1)/c1ccccc1`, the GI50 [1] is reported as 4.04 µM, the TGI [1] is reported as > 100 µM and the GI50 [54] is reported as 2.2 µM. For the same compound, the TGI [54] was > 100 µM, the GI50 [2] was 4.77 µM and the TGI [2] was > 52.4 µM. For the same compound, the GI50 [3] was 2.51 µM, the TGI [3] was > 33.8 µM and the GI50 [4] was 2.41 µM. The TGI [4] was > 64.2 µM, the GI50 [5] was 6.72 µM and the TGI [5] was > 100 µM. For the same compound, the GI50 [6] was 1.02 µM, the TGI [6] was 6.28 µM and the GI50 [7] was 3.82 µM. For the same compound, the TGI [7] was > 73.3 µM, the GI50 [8] was 1.42 µM and the TGI [8] was > 100 µM. For the same compound, the GI50 [9] was 13.7 µM, the TGI [9] was > 89.6 µM and the GI50 [10] was 0.367 µM. The TGI [10] was 2.76 µM, the GI50 [11] was 9.68 µM and the TGI [11] was > 100 µM. The GI50 [12] was 0.301 µM, the TGI [12] was 2.21 µM and the GI50 [13] was 12.3 µM. The TGI [13] was > 100 µM, the GI50 [15] was 3.29 µM and the TGI [15] was 32.5 µM. The GI50 [16] was 3.44 µM, the TGI [16] was 56.3 µM and the GI50 [17] was 16.1 µM. The TGI [17] was > 100 µM, the GI50 [19] was 2.02 µM and the TGI [19] was > 40.7 µM. The GI50 [20] was 4.7 µM, the TGI [20] was > 100 µM and the GI50 [21] was 9.46 µM. For the same compound, the TGI [21] was > 100 µM, the GI50 [22] was 7.54 µM and the TGI [22] was > 79.6 µM. The GI50 [23] was 6.97 µM, the TGI [23] was > 53.8 µM and the GI50 [24] was 6.82 µM. The TGI [24] was > 100 µM, the GI50 [25] was 11.5 µM and the TGI [25] was > 100 µM. For the same compound, the TGI [55] was > 100 µM, the GI50 [26] was 5.76 µM and the TGI [26] was 55.3 µM. For the same compound, the GI50 [56] was 0.43 µM, the TGI [56] was > 100 µM and the GI50 [27] was > 100 µM. For the same compound, the TGI [27] was > 100 µM, the GI50 [57] was 2.57 µM and the TGI [57] was > 100 µM. The GI50 [28] was 3.29 µM, the TGI [28] was 34.7 µM and the GI50 [29] was 1.73 µM. The TGI [29] was > 100 µM, the GI50 [30] was 3.82 µM and the TGI [30] was > 100 µM. The GI50 [31] was 8.47 µM, the TGI [31] was > 100 µM and the GI50 [32] was 2.58 µM. For the same compound, the TGI [32] was 20.2 µM, the GI50 [33] was 8.28 µM and the TGI [33] was > 89.3 µM. For the same compound, the GI50 [34] was 0.545 µM, the TGI [34] was 8.78 µM and the GI50 [35] was 1.71 µM. For the same compound, the TGI [35] was > 47.5 µM, the GI50 [36] was 6 µM and the TGI [36] was > 100 µM. For the same compound, the GI50 [37] was 6.73 µM, the TGI [37] was > 100 µM and the GI50 [38] was 2.26 µM. For the same compound, the TGI [38] was 7.95 µM, the GI50 [39] was 9.95 µM and the TGI [39] was 64.8 µM. The GI50 [40] was 3.47 µM, the TGI [40] was 24.9 µM and the GI50 [41] was 1.26 µM. For the same compound, the TGI [41] was > 100 µM, the GI50 [42] was > 43.7 µM and the TGI [42] was > 96.6 µM. The GI50 [58] was 7.05 µM, the TGI [58] was > 100 µM and the GI50 [43] was 3.2 µM. For the same compound, the TGI [43] was > 59.2 µM, the GI50 [44] was 10.4 µM and the TGI [44] was > 100 µM. For the same compound, the GI50 [45] was 4.64 µM, the TGI [45] was > 82.7 µM and the GI50 [46] was 1.3 µM. The TGI [46] was 11.7 µM, the GI50 [47] was 20 µM and the TGI [47] was > 100 µM. For the same compound, the GI50 [48] was 0.905 µM, the TGI [48] was > 100 µM and the GI50 [49] was 8.54 µM. The TGI [49] was > 100 µM, the GI50 [50] was 1.31 µM and the TGI [50] was 26.5 µM. The GI50 [51] was 3.67 µM, the TGI [51] was 36.8 µM and the GI50 [52] was 0.56 µM. The GI50 [53] was 5.07 µM and the TGI [53] was > 100 µM.

Reference: PubChem BioAssay (NCI)
